Patent US20230391786A1, “cGAS INHIBITORS” (Eli Lilly and Company, priority 2022, published 2023)
Counter-ions that a name gives are not always drawn. Like-named read-outs stand apart in the source and are kept apart here.

Columns and labels:
recombinant human cGAS = recombinant human cGAS (Homo sapiens (Human), UniProt Q8N884); experiment: In vitro inhibition assay of cGAS activity (cGAMP production, RapidFire mass spectrometry); format: biochemical; details: 10 nM recombinant human cGAS, 60 nM 75-bp dsDNA, ATP, GTP, room temperature 3 hours, read-out: IC50 (μM), In vitro inhibition assay for Compounds 95-348
Method in brief: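 Full-length His6-tagged human cGAS (10 nM, E. coli-expressed) was incubated 3 h at room temperature with 60 nM 75-bp dsDNA, ATP, 50 μM GTP and compound at pH 7.5 with 5 mM MgCl2. cGAMP formation was measured by RapidFire mass spectrometry, and IC50 was taken from a 4-parameter logistic fit.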

[1] = system: cGAS activity in THP1 cells (IFNb as marker); experiment: Cellular assay to measure cGAS activity (IFNb production in PMA-differentiated THP1 cells stimulated by RDG-Adenovirus-GFP); format: cell-based, human; details: PMA differentiated, RDG-Adenovirus-GFP 1000 MOI, IFNb AlphaLISA, overnight incubation, read-out: IC50 (μM), Cellular assay for Compounds 95-348
Method in brief: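 PMA-differentiated THP1 cells were infected with RDG-Adenovirus-GFP at 1000 MOI for 4 h, then exposed overnight to test compounds. IFNb in the supernatant was quantified by AlphaLISA as a cGAS activity marker, and IC50 was fitted with a 4-parameter logistic equation.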

[2] = Homo sapiens, THP-1, THP1 cells

Chain of recombinant human cGAS (Q8N884 whole entry): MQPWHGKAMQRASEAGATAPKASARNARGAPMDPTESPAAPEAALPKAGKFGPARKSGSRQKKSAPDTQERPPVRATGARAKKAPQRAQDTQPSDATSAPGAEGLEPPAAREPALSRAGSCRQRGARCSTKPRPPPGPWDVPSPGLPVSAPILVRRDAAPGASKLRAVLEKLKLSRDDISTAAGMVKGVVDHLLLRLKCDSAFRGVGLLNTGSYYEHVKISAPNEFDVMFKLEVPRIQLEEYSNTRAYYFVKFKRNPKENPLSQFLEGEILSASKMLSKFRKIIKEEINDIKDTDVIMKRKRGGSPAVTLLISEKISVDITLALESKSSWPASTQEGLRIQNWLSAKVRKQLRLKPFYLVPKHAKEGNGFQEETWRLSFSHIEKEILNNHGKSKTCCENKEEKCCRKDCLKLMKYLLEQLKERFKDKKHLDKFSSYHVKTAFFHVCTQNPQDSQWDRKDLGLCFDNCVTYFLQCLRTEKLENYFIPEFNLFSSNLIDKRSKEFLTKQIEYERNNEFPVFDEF

Structure (SMILES)	IC50 (recombinant human cGAS) [µM]	IC50 [1, 2] [µM]	IC50 ([1]; THP1 cells) [µM]
CC(=O)NCC(=O)NC1CCc2c(-c3cn[nH]c3)c3ccc(Cl)c(Cl)c3n2C1 (stereo not drawn) [Example 107, 2-Acetamido-N-[3,4-dichloro-10-(1H-pyrazol-4-yl)-6,7,8,9-tetrahydropyrido[1,2-a]indol-7-yl]acetamide]	0.0196	5.56	
OCC(F)(F)CNc1cc(Cl)c(Cl)c2[nH]cc(-c3cn[nH]c3)c12 [Example 186, 3-[[6,7-Dichloro-3-(1H-pyrazol-4-yl)-1H-indol-4-yl]amino]-2,2-difluoro-propan-1-ol]	0.0127	0.909	
CC(CO)COc1cc(Cl)c(Cl)c2[nH]cc(-c3cn[nH]c3)c12 (stereo not drawn) [Example 125, 3-((6,7-Dichloro-3-(1H-pyrazol-4-yl)-1H-indol-4-yl)oxy)-2-methylpropan-1-ol]	0.0103	0.426	
CC(=O)N1CCn2c(c(-c3cn[nH]c3)c3c(NCCCO)cc(Cl)c(Cl)c32)C1 [Example 253, 1-[6,7-Dichloro-9-(3-hydroxypropylamino)-10-(1H-pyrazol-4-yl)-3,4-dihydro-1H-pyrazino[1,2-a]indol-2-yl]ethanone]	0.014	0.509	
O=C(Nc1cc(Cl)c(Cl)c2[nH]c(CCO)c(-c3cn[nH]c3)c12)C(F)F [Example 225, N-[6,7-Dichloro-2-(2-hydroxyethyl)-3-(1H-pyrazol-4-yl)-1H-indol-4-yl]-2,2-difluoro-acetamide]	0.0121	0.23	
COCCS(=O)(=O)NC1CCc2c(-c3cn[nH]c3)c3ccc(Cl)c(Cl)c3n2C1 (stereo not drawn) [Example 117, N-[3,4-Dichloro-10-(1H-pyrazol-4-yl)-6,7,8,9-tetrahydropyrido[1,2-a]indol-7-yl]-2-methoxy-ethanesulfonamide]	0.0153	2.49	
O=C(CC1COCCOC1)N1CCn2c(c(-c3cn[nH]c3)c3ccc(Cl)c(Cl)c32)C1 [Example 298, 1-(6,7-Dichloro-10-(1H-pyrazol-4-yl)-3,4-dihydropyrazino[1,2-a]indol-2(1H)-yl)-2-(1,4-dioxepan-6-yl)ethan-1-one]	0.0234	> 10	
CN1CCOCC1C(=O)N1CCn2c(c(-c3cn[nH]c3)c3ccc(Cl)c(Cl)c32)C1 (stereo not drawn) [Example 309, (6,7-Dichloro-10-(1H-pyrazol-4-yl)-3,4-dihydropyrazino[1,2-a]indol-2(1H)-yl)(4-methylmorpholin-3-yl)methanone]	0.0427	> 10	
CCNc1cc(Cl)c(Cl)c2[nH]cc(-c3cn[nH]c3)c12 [Example 150, 6,7-Dichloro-N-ethyl-3-(1H-pyrazol-4-yl)-1H-indol-4-amine]	0.0303	1.92	
CC(=O)N1CCn2c(c(-c3cn[nH]c3)c3c(OCC(N)=O)cc(Cl)c(Cl)c32)C1 [Example 268, 2-[[2-Acetyl-6,7-dichloro-10-(1H-pyrazol-4-yl)-3,4-dihydro-1H-pyrazino[1,2-a]indol-9-yl]oxy]acetamide]	0.0385	5.87	
O[C@@H]1C[C@H](Oc2cc(Cl)c(Cl)c3[nH]cc(-c4cn[nH]c4)c23)[C@@H](O)C1 (racemic) [Example 220, 4-[[6,7-Dichloro-3-(1H-pyrazol-4-yl)-1H-indol-4-yl]oxy]cyclopentane-1,3-diol (racemic mixture)]	0.0301	0.556	
Sc1nnc(-c2[nH]c3c(Cl)c(Cl)ccc3c2-c2cn[nH]c2)[nH]1 [Example 159, 5-[6,7-Dichloro-3-(1H-pyrazol-4-yl)-1H-indol-2-yl]-4H-1,2,4-triazole-3-thiol]	0.019	> 10	
N#CCNc1cc(Cl)c(Cl)c2c1c(-c1cn[nH]c1)c1n2CCN(CCO)C1=O [Example 143, 2-[[6,7-Dichloro-2-(2-hydroxyethyl)-1-oxo-10-(1H-pyrazol-4-yl)-3,4-dihydropyrazino[1,2-a]indol-9-yl]amino]acetonitrile]	0.0419	> 10	
Cn1cnc(C(=O)N2CCn3c(c(-c4cn[nH]c4)c4c(OCC#N)cc(Cl)c(Cl)c43)C2)n1 [Example 283, 2-((6,7-Dichloro-2-(1-methyl-1H-1,2,4-triazole-3-carbonyl)-10-(1H-pyrazol-4-yl)-1,2,3,4-tetrahydropyrazino[1,2-a]indol-9-yl)oxy)acetonitrile]	0.0106	4.27	
O=C(CO)NC1CCn2c1c(-c1cn[nH]c1)c1ccc(Cl)c(Cl)c12 (single isomer, unassigned) [Example 345, N-(5,6-Dichloro-9-(1H-pyrazol-4-yl)-2,3-dihydro-1H-pyrrolo[1,2-a]indol-1-yl)-2-hydroxyacetamide]	0.0628		3.97
CNNc1cc(Cl)c(Cl)c2[nH]cc(-c3cn[nH]c3)c12 [Example 215, 1-[6,7-Dichloro-3-(1H-pyrazol-4-yl)-1H-indol-4-yl]-2-methyl-hydrazine hydrochloride]	0.0864	2.59	
N#CCOc1cc(Cl)c(Cl)c2c1c(-c1cn[nH]c1)c1n2CCN(C(=O)CN2CCOC2=O)C1 [Example 284, 2-((6,7-Dichloro-2-(2-(2-oxooxazolidin-3-yl)acetyl)-10-(1H-pyrazol-4-yl)-1,2,3,4-tetrahydropyrazino[1,2-a]indol-9-yl)oxy)acetonitrile]	0.0124	9.75	
N#CCOc1cc(Cl)c(Cl)c2c1c(-c1cn[nH]c1)c1n2CCN(C(=O)Cn2cncn2)C1 [Example 287, 2-((2-(2-(1H-1,2,4-Triazol-1-yl)acetyl)-6,7-dichloro-10-(1H-pyrazol-4-yl)-1,2,3,4-tetrahydropyrazino[1,2-a]indol-9-yl)oxy)acetonitrile]	0.0203	5.11	
O[C@H]1CC[C@@H](Oc2cc(Cl)c(Cl)c3[nH]cc(-c4cn[nH]c4)c23)C1 (racemic) [Example 100, Cis-3-((6,7-Dichloro-3-(1H-pyrazol-4-yl)-1H-indol-4-yl)oxy)cyclopentan-1-ol (racemic mixture)]	0.0356	> 10	
Clc1cc(NC2COC2)c2c(-c3cn[nH]c3)c[nH]c2c1Cl [Example 177, 6,7-Dichloro-N-(oxetan-3-yl)-3-(1H-pyrazol-4-yl)-1H-indol-4-amine]	0.0245	1.13	
CCN1CCn2c(c(-c3cn[nH]c3)c3c(NC(=O)C(F)F)cc(Cl)c(Cl)c32)C1=O [Example 251, N-[6,7-Dichloro-2-ethyl-1-oxo-10-(1H-pyrazol-4-yl)-3,4-dihydropyrazino[1,2-a]indol-9-yl]-2,2-difluoro-acetamide]	0.0265	1.36	
OCC(CO)CNc1cc(Cl)c(Cl)c2[nH]cc(-c3cn[nH]c3)c12 [Example 192, 2-[[[6,7-Dichloro-3-(1H-pyrazol-4-yl)-1H-indol-4-yl]amino]methyl]propane-1,3-diol]	0.0379	1.29	
N#CCOc1cc(Cl)c(Cl)c2c1c(-c1cn[nH]c1)c1n2CCN(C(=O)CN2CCOCC2)C1 [Example 289, 2-((6,7-Dichloro-2-(2-morpholinoacetyl)-10-(1H-pyrazol-4-yl)-1,2,3,4-tetrahydropyrazino[1,2-a]indol-9-yl)oxy)acetonitrile]	0.0303	3.73	
N#CCOc1cc(Cl)c(Cl)c2c1c(-c1cn[nH]c1)c1n2CCN(C(=O)CCn2cncn2)C1 [Example 292, 2-((2-(3-(1H-1,2,4-Triazol-1-yl)propanoyl)-6,7-dichloro-10-(1H-pyrazol-4-yl)-1,2,3,4-tetrahydropyrazino[1,2-a]indol-9-yl)oxy)acetonitrile]	0.0365	4.08	
CN1CC(C(=O)N2CCn3c(c(-c4cn[nH]c4)c4c(OCC#N)cc(Cl)c(Cl)c43)C2)CC1=O (stereo not drawn) [Example 291, 2-((6,7-Dichloro-2-(1-methyl-5-oxopyrrolidine-3-carbonyl)-10-(1H-pyrazol-4-yl)-1,2,3,4-tetrahydropyrazino[1,2-a]indol-9-yl)oxy)acetonitrile]	0.0325	4.91	
N#CCOc1cc(Cl)c(Cl)c2c1c(-c1cn[nH]c1)c1n2CCN(C(=O)C2COCCO2)C1 (stereo not drawn) [Example 288, 2-((6,7-Dichloro-2-(1,4-dioxane-2-carbonyl)-10-(1H-pyrazol-4-yl)-1,2,3,4-tetrahydropyrazino[1,2-a]indol-9-yl)oxy)acetonitrile]	0.0242	0.56	
CCNc1cc(Cl)c(Cl)c2c1c(-c1cn[nH]c1)c1n2CCN(C)C1=O [Example 149, 6,7-Dichloro-9-(ethylamino)-2-methyl-10-(1H-pyrazol-4-yl)-3,4-dihydropyrazino[1,2-a]indol-1-one hydrochloride]	0.0442	6.05	
COCCN1CCn2c(c(-c3cn[nH]c3)c3c(NC(=O)C(F)F)cc(Cl)c(Cl)c32)C1=O [Example 252, N-[6,7-Dichloro-2-(2-methoxyethyl)-1-oxo-10-(1H-pyrazol-4-yl)-3,4-dihydropyrazino[1,2-a]indol-9-yl]-2,2-difluoro-acetamide]	0.033	0.726	
OCCCn1cc(-n2cc(-c3cn[nH]c3)c3ccc(Cl)c(Cl)c32)nn1 [Example 139, 3-[4-[6,7-Dichloro-3-(1H-pyrazol-4-yl)indol-1-yl]triazol-1-yl]propan-1-ol]	0.077	5.13	
CC(=O)NCCn1cc(-c2cn[nH]c2)c2c(OCC#N)cc(Cl)c(Cl)c21 [Example 136, N-[2-[6,7-Dichloro-4-(cyanomethoxy)-3-(1H-pyrazol-4-yl)indol-1-yl]ethyl]acetamide]	0.0764	3.42	
